{"source": "patent US11564929B2", "about": "“Combination therapy with Notch and PI3K/mTOR inhibitors for use in treating cancer” (Eli Lilly and Company, priority 2016, dated 2023)", "tested_on": "A2780 human ovarian carcinoma", "assay": "Human A2780 xenograft tumor growth in athymic nude mice", "type": "in vivo", "procedure": "A2780 is a human ovarian cell line (Sigma-Aldrich). The cells are grown in culture media at 37° C. in 5% CO2 with humidity in the atmosphere. Cell culture media for A2780 human ovarian carcinoma is RPMI-1640 (without phenol red) with 2.05 mM L-glutamine, 0.01 mg/ml insulin and 10% fetal bovine serum (EBS) added.\nTo evaluate in viva efficacy and effect A2780 (2×10^6) cells in a 1:1 Matrigel® mix (0.2 mL volume) are implanted by subcutaneous injection in the hind leg of 6-8 weeks of age athymic nude female mice (Harlan Laboratories). A total of 7 to 10 mice are used for each group. Just before implantation, animals are irradiated ([…]). Mice are fed ad libitum on normal chow. Treatment is initiated with oral administration (gavage) of Compound A or vehicle (1% sodium carboxymethylcellulose (Na-CMC) in 0.25% Tween®-80) or Compound B in 1% hydroxyethyl cellulose (HEC)/0.25% Tween® 80/0.05% Antifoam or their vehicle in 0.2 mL volume when tumor size reached to 150±50 mm^3, in this case after the tumor measurements were taken on study day 9. Compound A was administered at 4 or 8 mg/kg on a Monday, Wednesday and Friday schedule for 4 weeks and Compound B was administered at 15 or 30 mg/kg daily for 28 days. Tumor growth and body weight are monitored over time to evaluate efficacy and signs of toxicity. Bidimensional measurements of tumors are performed twice a week and tumor volumes are calculated based on the following formula: (Tumor Volume)=[(L)×(W2)×(II/6)] where L is mid-axis length and W is mid-axis width. Tumor volume data are transformed to a […] to equalize variance across time and treatment groups. The log volume data are analyzed with a two-way repeated measures analysis of variance by time and treatment using the MIXED™ procedure in SAS™ software (version 8.2). The correlation model for the repeated measures is spatial power. Test Groups are: • 01: Control: 1% HEC/0.25% Tween 80/0.05% Antifoam; 1% CMC/0.25% Tween 80/0.05% Antifoam; • 02: Compound A 8 mg/kg; • 03: Compound B 30 mg/kg; • 04: rapamycin 4 mg/kg; • 05: Compound A 8 mg/kg and Compound B 30 mg/kg; • 06: Compound A 4 mg/kg and Compound B 30 mg/kg; • 07: Compound B 15 mg/kg and Compound A 8 mg/kg; • 08: Compound B 15 mg/kg and Compound A 4 mg/kg; • 09: Compound A 8 mg/kg and rapamycin 4 mg/kg.\nUsing the repeated measures analysis previously described, a contrast statement is used to test for an interaction effect on study day 36, using the two specific treatments that were combined."}
{"smiles": "CO[C@@H](C)Cn1c(=O)n(C)c2cnc3ccc(-c4cncc(C(C)(C)O)c4)cc3c21", "note": "[Compound B, 8-[5-(1-hydroxy-1-methylethyl)pyridin-3-yl]-1-[(2S)-2-methoxypropyl]-3-methyl-1,3-dihydro-2H-imidazo[4,5-c]quinolin-2-one]", "values": [{"measurement": "Tumor volume, Geometric Mean", "setting": "Group 03: Compound B 30 mg/kg oral daily, study day 7 (before first dose)", "result": 149.36, "unit": "mm^3"}, {"measurement": "Tumor volume, Geometric Mean", "setting": "Group 03: Compound B 30 mg/kg oral daily, study day 9 (before first dose)", "result": 118.70, "unit": "mm^3"}, {"measurement": "Tumor volume, Geometric Mean", "setting": "Group 03: Compound B 30 mg/kg oral daily, study day 12", "result": 138.06, "unit": "mm^3"}, {"measurement": "Tumor volume, Geometric Mean", "setting": "Group 03: Compound B 30 mg/kg oral daily, study day 15", "result": 201.95, "unit": "mm^3"}, {"measurement": "Tumor volume, Geometric Mean", "setting": "Group 03: Compound B 30 mg/kg oral daily, study day 19", "result": 326.33, "unit": "mm^3"}, {"measurement": "Tumor volume, Geometric Mean", "setting": "Group 03: Compound B 30 mg/kg oral daily, study day 22", "result": 488.21, "unit": "mm^3"}, {"measurement": "Tumor volume, Geometric Mean", "setting": "Group 03: Compound B 30 mg/kg oral daily, study day 26", "result": 776.88, "unit": "mm^3"}, {"measurement": "Tumor volume, Geometric Mean", "setting": "Group 03: Compound B 30 mg/kg oral daily, study day 29", "result": 1135.14, "unit": "mm^3"}, {"measurement": "Tumor volume, Geometric Mean", "setting": "Group 03: Compound B 30 mg/kg oral daily, study day 33", "result": 1527.41, "unit": "mm^3"}, {"measurement": "Tumor volume, Geometric Mean", "setting": "Group 03: Compound B 30 mg/kg oral daily, study day 36", "result": 1664.20, "unit": "mm^3"}]}
{"smiles": "C[C@H](NC(=O)CCC(F)(F)F)C(=O)N[C@@H]1C(=O)N(CCO)c2ncccc2-c2ccccc21", "note": "[Compound A, 4,4,4-trifluoro-N-[(1S)-2-[[(7S)-5-(2-hydroxyethyl)-6-oxo-7H-pyrido[2,3-d][3]benzazepin-7-yl]amino]-1-methyl-2-oxo-ethyl]butanamide]", "values": [{"measurement": "Tumor volume, Geometric Mean", "setting": "Group 02: Compound A 8 mg/kg oral Mon/Wed/Fri, study day 7 (before first dose)", "result": 121.62, "unit": "mm^3"}, {"measurement": "Tumor volume, Geometric Mean", "setting": "Group 02: Compound A 8 mg/kg oral Mon/Wed/Fri, study day 9 (before first dose)", "result": 109.98, "unit": "mm^3"}, {"measurement": "Tumor volume, Geometric Mean", "setting": "Group 02: Compound A 8 mg/kg oral Mon/Wed/Fri, study day 12", "result": 131.53, "unit": "mm^3"}, {"measurement": "Tumor volume, Geometric Mean", "setting": "Group 02: Compound A 8 mg/kg oral Mon/Wed/Fri, study day 15", "result": 194.78, "unit": "mm^3"}, {"measurement": "Tumor volume, Geometric Mean", "setting": "Group 02: Compound A 8 mg/kg oral Mon/Wed/Fri, study day 19", "result": 408.55, "unit": "mm^3"}, {"measurement": "Tumor volume, Geometric Mean", "setting": "Group 02: Compound A 8 mg/kg oral Mon/Wed/Fri, study day 22", "result": 639.48, "unit": "mm^3"}, {"measurement": "Tumor volume, Geometric Mean", "setting": "Group 02: Compound A 8 mg/kg oral Mon/Wed/Fri, study day 26", "result": 1140.46, "unit": "mm^3"}, {"measurement": "Tumor volume, Geometric Mean", "setting": "Group 02: Compound A 8 mg/kg oral Mon/Wed/Fri, study day 29", "result": 1384.21, "unit": "mm^3"}, {"measurement": "Tumor volume, Geometric Mean", "setting": "Group 02: Compound A 8 mg/kg oral Mon/Wed/Fri, study day 33", "result": 1631.82, "unit": "mm^3"}, {"measurement": "Tumor volume, Geometric Mean", "setting": "Group 02: Compound A 8 mg/kg oral Mon/Wed/Fri, study day 36", "result": 1616.05, "unit": "mm^3"}]}
{"smiles": "CO[C@H]1C[C@@H]2CC[C@@H](C)[C@@](O)(O2)C(=O)C(=O)N2CCCC[C@H]2C(=O)O[C@H]([C@H](C)C[C@@H]2CC[C@@H](O)[C@H](OC)C2)CC(=O)[C@H](C)/C=C(\\C)[C@@H](O)[C@@H](OC)C(=O)[C@H](C)C[C@H](C)/C=C/C=C/C=C/1C", "note": "[rapamycin, reference compound]", "values": [{"measurement": "Tumor volume, Geometric Mean", "setting": "Group 04: rapamycin 4 mg/kg, study day 7 (before first dose)", "result": 130.45, "unit": "mm^3"}, {"measurement": "Tumor volume, Geometric Mean", "setting": "Group 04: rapamycin 4 mg/kg, study day 9 (before first dose)", "result": 100.08, "unit": "mm^3"}, {"measurement": "Tumor volume, Geometric Mean", "setting": "Group 04: rapamycin 4 mg/kg, study day 12", "result": 130.81, "unit": "mm^3"}, {"measurement": "Tumor volume, Geometric Mean", "setting": "Group 04: rapamycin 4 mg/kg, study day 15", "result": 215.88, "unit": "mm^3"}, {"measurement": "Tumor volume, Geometric Mean", "setting": "Group 04: rapamycin 4 mg/kg, study day 19", "result": 428.88, "unit": "mm^3"}, {"measurement": "Tumor volume, Geometric Mean", "setting": "Group 04: rapamycin 4 mg/kg, study day 22", "result": 786.46, "unit": "mm^3"}, {"measurement": "Tumor volume, Geometric Mean", "setting": "Group 04: rapamycin 4 mg/kg, study day 26", "result": 1291.64, "unit": "mm^3"}, {"measurement": "Tumor volume, Geometric Mean", "setting": "Group 04: rapamycin 4 mg/kg, study day 29", "result": 1664.57, "unit": "mm^3"}, {"measurement": "Tumor volume, Geometric Mean", "setting": "Group 04: rapamycin 4 mg/kg, study day 33", "result": 2136.31, "unit": "mm^3"}, {"measurement": "Tumor volume, Geometric Mean", "setting": "Group 04: rapamycin 4 mg/kg, study day 36", "result": 2461.81, "unit": "mm^3"}]}
